For assay [1], the target named is T1, indoleamine 2, 3-dioxygenase (IDO1) (Homo sapiens, UniProt P14902). The assay is described as follows: PBMC IDOi assay (kynurenine detection via mass spectrometry). The assay is classed as cell-based. Particulars: human PBMC stimulated with IFN-γ and LPS; kynurenine by mass spectrometry; 2 days incubation. How it is done: (§1) Compounds of the present invention were tested via high-throughput cellular assays utilizing detection of kynurenine via mass spectrometry and cytotoxicity as end-points. For the mass spectrometry and cytotoxicity assays, human peripheral blood mononuclear cells (PBMC) (PB003F; AlICells®, Alameda, Calif.) were stimulated with human interferon-γ (IFN-γ) (Sigma-Aldrich Corporation, St. Louis, Mo.) and lipopolysaccharide from Salmonella minnesota (LPS) (Invivogen, San Diego, Calif.) to induce the expression of indoleamine 2, 3-dioxygenase (IDO1). Compounds with IDO1 inhibitory properties decreased the amount of kynurenine produced by the cells via the tryptophan catabolic pathway. Cellular toxicity due to the effect of compound treatment was measured using CellTiter-Glo® reagent (CTG) (Promega Corporation, Madison, Wis.), which is based on luminescent detection of ATP, an indicator of metabolically active cells.
(§2) In preparation for the assays, test compounds were serially diluted 3-fold in DMSO from a typical top concentration of 5 mM and plated at 0.5 μL in 384-well, polystyrene, clear bottom, tissue culture treated plates with lids (Greiner Bio-One, Kremsmünster, Austria) to generate 11-point dose response curves. Low control wells (0% kynurenine or 100% cytotoxicity) contained either 0.5 μL of DMSO in the presence of unstimulated (−IFN-γ/−LPS) PBMCs for the mass spectrometry assay or 0.5 μL of DMSO in the absence of cells for the cytotoxicity assay, and high control wells (100% kynurenine or 0% cytotoxicity) contained 0.5 μL of DMSO in the presence of stimulated (+IFN-γ/+LPS) PBMCs for both the mass spectrometry and cytotoxicity assays.
Frozen stocks of PBMCs were washed and recovered in RPMI 1640 medium (Thermo Fisher Scientific, Inc., Waltham, Mass.) supplemented with 10% v/v heat-inactivated fetal bovine serum (FBS) (Thermo Fisher Scientific, Inc., Waltham, Mass.), and 1× penicillin-streptomycin antibiotic solution (Thermo Fisher Scientific, Inc., Waltham, Mass.). The cells were diluted to 1,000,000 cells/mL in the supplemented RPMI 1640 medium. 50 μL of either the cell suspension, for the mass spectrometry assay, or medium alone, for the cytotoxicity assay, were added to the low control wells, on the previously prepared 384-well compound plates, resulting in 50,000 cells/well or 0 cells/well respectively. IFN-γ and LPS were added to the remaining cell suspension at final concentrations of 100 ng/ml and 50 ng/ml respectively, and 50 μL of the stimulated cells were added to all remaining wells on the 384-well compound plates. The plates, with lids, were then placed in a 37° C., 5% CO2 humidified incubator for 2 days.
(§3) Following incubation, the 384-well plates were removed from the incubator and allowed to equilibrate to room temperature for 30 minutes. For the cytotoxicity assay, CellTiter-Glo® was prepared according to the manufacturer's instructions, and 40 μL were added to each plate well. After a twenty minute incubation at room temperature, luminescence was read on an EnVision® Multilabel Reader (PerkinElmer Inc., Waltham, Mass.). For the mass spectrometry assay, 10 μL of supernatant from each well of the compound-treated plates were added to 40 μL of acetonitrile, containing 10 μM of an internal standard for normalization, in 384-well, polypropylene, V-bottom plates (Greiner Bio-One, Kremsmünster, Austria) to extract the organic analytes. Following centrifugation at 2000 rpm for 10 minutes, 10 μL from each well of the acetonitrile extraction plates were added to 90 μL of sterile, distilled H2O in 384-well, polypropylene, V-bottom plates for analysis of kynurenine and the internal standard on the RapidFire 300 (Agilent Technologies, Santa Clara, Calif.) and 4000 QTRAP MS (SCIEX, Framingham, Mass.). MS data were integrated using Agilent Technologies' RapidFire Integrator software, and data were normalized for analysis as a ratio of kynurenine to the internal standard. […]

Assay [2] deals with T1, indoleamine 2, 3-dioxygenase (IDO1). The assay is described as follows: HeLa IDOi assay (kynurenine detection via mass spectrometry). It is filed as cell-based. Further details: human epithelial HeLa cells (CCL-2; host or cells: HeLa cells stimulated with human IFN-γ. The following applies: human epithelial HeLa cells stimulated with IFN-γ; kynurenine by mass spectrometry; 2 days incubation. As to the method:
as §1, with “epithelial HeLa” for “peripheral blood mononuclear”, “(CCL-2; ATCC®, Manassas, Va.)” for “(PBMC) (PB003F; AlICells®, Alameda, Calif.)”, “Mo.)” for “Mo.) and lipopolysaccharide from Salmonella minnesota (LPS) (Invivogen, San Diego, Calif.)”
as §2, with “(−IFN-γ) HeLa cells” for “(−IFN-γ/−LPS) PBMCs”, “(+IFN-γ) HeLa cells” for “(+IFN-γ/+LPS) PBMCs”
Frozen stocks of HeLa cells were washed and recovered in DMEM high glucose medium with HEPES (Thermo Fisher Scientific, Inc., Waltham, Mass.) supplemented with 10% v/v certified fetal bovine serum (FBS) (Thermo Fisher Scientific, Inc., Waltham, Mass.), and 1× penicillin-streptomycin antibiotic solution (Thermo Fisher Scientific, Inc., Waltham, Mass.). The cells were diluted to 100,000 cells/mL in the supplemented DMEM medium. 50 μL of either the cell suspension, for the mass spectrometry assay, or medium alone, for the cytotoxicity assay, were added to the low control wells, on the previously prepared 384-well compound plates, resulting in 5,000 cells/well or 0 cells/well respectively. IFN-γ was added to the remaining cell suspension at a final concentration of 10 nM, and 50 μL of the stimulated cells were added to all remaining wells on the 384-well compound plates. The plates, with lids, were then placed in a 37° C., 5% CO2 humidified incubator for 2 days.
as §3, with “instructions, and 10 μL were” for “instructions, and 40 μL were”

One may read the EC50 as the concentration at which the effect is half-maximal. Read a low EC50 as higher potency in that assay.

T1 sequence (P14902 whole entry): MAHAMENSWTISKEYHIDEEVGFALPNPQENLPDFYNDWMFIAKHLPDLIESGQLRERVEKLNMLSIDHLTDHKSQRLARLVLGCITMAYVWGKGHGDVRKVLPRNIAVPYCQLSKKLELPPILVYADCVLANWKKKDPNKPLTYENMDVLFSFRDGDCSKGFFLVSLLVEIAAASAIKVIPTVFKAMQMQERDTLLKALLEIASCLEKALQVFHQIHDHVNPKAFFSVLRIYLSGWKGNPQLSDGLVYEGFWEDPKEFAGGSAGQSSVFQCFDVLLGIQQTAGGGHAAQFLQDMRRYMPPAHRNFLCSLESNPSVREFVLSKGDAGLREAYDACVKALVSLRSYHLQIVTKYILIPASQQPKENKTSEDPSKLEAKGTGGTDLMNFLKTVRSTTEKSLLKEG

For the compound `CCCCc1cc(-c2ccccc2-c2nnn[nH]2)cc(Nc2nc3ccccc3o2)c1OCCC` [Example 14, N-(5-Butyl-4-propoxy-2′-(1H-tetrazol-5-yl)-[1,1′-biphenyl]-3-yl)benzo[d]oxazol-2-amine], the EC50 in assay [1] is 7.94 nM; in assay [2], 5.01 nM.
On the same counts, the results for `CCCC(CCC)Oc1ccc(-c2ccccc2-c2nnn[nH]2)cc1Nc1nc2ccccc2o1` [Example 16, N-(4-(Heptan-4-yloxy)-2′-(1H-tetrazol-5-yl)-[1,1′-biphenyl]-3-yl)benzo[d]oxazol-2-amine] are 63.1 nM and 100 nM.
On the same counts, the results for `CC(C)CN(c1ccc(-c2ccccc2C(=O)O)cc1Nc1nc(C(F)(F)F)ns1)C1CCCCC1` [Example 17, 4′-(Cyclohexyl(isobutyl)amino)-3′((3-(trifluoromethyl)-1,2,4-thiadiazol-5-yl)amino)-[1,1′-biphenyl]-2-carboxylic acid] are 1 nM and 2 nM.
On the same counts, the results for `CC(C)CN(c1ccc(-c2ccccc2-c2nnn[nH]2)cc1Nc1nc(C(F)(F)F)ns1)C1CCCCC1` [Example 18, N^4-cyclohexyl-N^4-isobutyl-2′-(1H-tetrazol-5-yl)-N^3-(3-(trifluoromethyl)-1,2,4-thiadiazol-5-yl)-[1,1′-biphenyl]-3,4-diamine] are 1.26 nM and 2.51 nM.
Take `CC(C)CN(c1ccc(-c2ccccc2-c2nnn[nH]2)cc1Nc1nc2ccccc2[nH]1)C1CCCCC1` [Example 19, N^3-(1H-benzo[d]imidazol-2-yl)-N^4-cyclohexyl-N^4-isobutyl-2′-(1H-tetrazol-5-yl)-[1,1′-biphenyl]-3,4-diamine]: the EC50 in assay [1] was 1.58 nM; in assay [2], 6.31 nM.
On the same counts, the results for `CC(C)CN(c1ccc(-c2ccccc2C(=O)O)cc1Nc1nnc(C2CC2)s1)C1CCCCC1` [Example 20, 4′-(Cyclohexyl(isobutyl)amino)-3′((5-cyclopropyl-1,3,4-thiadiazol-2-yl)amino)-[1,1′-biphenyl]-2-carboxylic acid] are 0.794 nM and 2 nM.
As to `CC(C)CN(c1ccc(-c2ccccc2-c2nnn[nH]2)cc1Nc1nnc(C2CC2)s1)C1CCCCC1` [Example 21, N^4-Cyclohexyl-N^3-(5-cyclopropyl-1,3,4-thiadiazol-2-yl)-N^4-isobutyl-2′-(1H-tetrazol-5-yl)-[1,1′-biphenyl]-3,4-diamine], the EC50 in assay [1] is 1.58 nM; in assay [2], 3.16 nM.

For the origin of these results see patent publication US10358427B2, “Modulators of indoleamine 2,3-dioxygenase” (GLAXOSMITHKLINE INTELLECTUAL PROPERTY DEVELOPMENT LIMITED, priority 2015, dated 2019).
